Earlier results, collected in US20220313608A1, “TREATMENT OF BREAST CANCER” (SynCore Biotechnology Co., Ltd., priority 2015, published 2022).

System: metastatic breast cancer patients
Conditions: first-line, gemcitabine 1250 mg/m^2 days 1 and 8, paclitaxel 175 mg/m^2 triweekly

Structure (SMILES): CC(=O)O[C@H]1C(=O)[C@@]2(C)[C@H]([C@H](OC(=O)c3ccccc3)[C@]3(O)C[C@H](OC(=O)[C@H](O)[C@@H](NC(=O)c4ccccc4)c4ccccc4)C(C)=C1C3(C)C)[C@]1(OC(C)=O)CO[C@@H]1C[C@@H]2O [paclitaxel]
- frequency of alteration of hepatic function: 2%
